Test results as given in US20220235065A1 (Epizyme, Inc., priority 2016, published 2022).
Structures can show the parent of a compound that is named as a salt.

The compounds below were run against T1, recombinant purified human EHMT2 913-1193 (Homo sapiens, UniProt Q96KQ7) (assay: EHMT2 enzyme assay on histone peptide substrate (3H-SAM Flashplate)). Conditions: read-out: EHMT2 PEP (IC50 μM).
T1 construct: Recombinant purified human EHMT2 913-1193 (55 μM) synthesized by Viva was used for all experiments; purchased Viva
T1 sequence (Q96KQ7 913-1193): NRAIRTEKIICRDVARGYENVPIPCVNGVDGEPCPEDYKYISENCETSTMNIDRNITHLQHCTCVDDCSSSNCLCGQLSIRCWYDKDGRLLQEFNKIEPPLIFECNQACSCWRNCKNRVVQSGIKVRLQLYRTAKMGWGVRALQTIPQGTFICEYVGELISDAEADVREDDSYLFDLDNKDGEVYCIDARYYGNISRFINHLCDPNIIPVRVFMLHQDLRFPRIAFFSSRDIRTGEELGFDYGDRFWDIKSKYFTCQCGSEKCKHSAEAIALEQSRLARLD
Assay type: biochemical
Procedure, shortened: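 Compounds (10-point 3-fold series, top 50 μM final, 2% DMSO) preincubated 30 min with 0.031 nM EHMT2 in 20 mM Bicine pH 7.5, 1 mM TCEP; reaction started with 3H-SAM and biotinylated H3 1-15 peptide, both at Km, run 60 min at room temperature. Flashplate capture; IC50 from four-parameter fit, triplicates.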
`CNc1cc(C)nc(Nc2ccc(OC)c(-n3cc4c(n3)CCN(C)C4)c2)n1` [Compound 2] was tested, and the IC50 was < 0.1 µM.
`CNc1cc(C)nc(Nc2ccc(OC)c(-n3cc4c(n3)CN(C)CC4)c2)n1` [Compound 3] was tested, and the IC50 was 1 to 10 µM.
In the case of `CNc1cc(C)nc(Nc2ccc(OC)c(-n3ccc(CN4CCCC4)n3)c2)n1` [Compound 4, trifluoroacetic acid], the IC50 is reported as 1 to 10 µM.
`CNc1cc(C)nc(Nc2ccc(OC)c(-n3cc(CN4CCCC4)cn3)c2)n1` [Compound 5, 2-N-[4-methoxy-3-[4-(pyrrolidin-1-ylmethyl)-1H-pyrazol-1-yl]phenyl]-4-N,6-dimethylpyrimidine-2,4-diamine] was tested, and the IC50 was 1 to 10 µM.
With `CNc1cc(C)nc(Nc2ccc(OC)c(-n3cc4ccncc4n3)c2)n1` [Compound 41] the IC50 was > 10 µM.
In the case of `CNc1cc(C)nc(Nc2ccc(OC)c(-c3ccc4cc[nH]c4n3)c2)n1` [Compound 42], the IC50 is reported as > 10 µM.
In the case of `CNc1cc(C)nc(Nc2ccc(OC)c(-n3cc4c(n3)CCOC4)c2)n1` [Compound 43], the IC50 is reported as > 10 µM.
Compound `CNc1cc(C)nc(Nc2ccc(OC)c(-c3nc4cnccc4[nH]3)c2)n1` [Compound 47] has an IC50 of 1 to 10 µM.
`CNc1cc(C)nc(Nc2ccc(OC)c(-c3cc4cnccc4[nH]3)c2)n1` [Compound 48] showed an IC50 of 0.1 to 1 µM.
With `CCn1cc(NC(=O)c2cc(Nc3nc(C)cc(NC)n3)ccc2OC)cn1` [Compound 49] the IC50 was > 10 µM.
With `CNc1cc(C)nc(Nc2cnc(OC)c(-n3cc4c(n3)CCNC4)c2)n1` [Compound 50] the IC50 was 0.1 to 1 µM.
With `CNc1cc(C)nc(Nc2ccc(OC)c(-n3cc4c(n3)CCCN4)c2)n1` [Compound 56, N2-(4-methoxy-3-(4,5,6,7-tetrahydro-2H-pyrazolo[4,3-b]pyridin-2-yl)phenyl)-N4,6-dimethylpyrimidine-2,4-diamine hydrochloride] the IC50 was > 10 µM.
`CNc1cc(C)nc(Nc2cnc(OC)c(-n3cc4c(n3)CCN(C)C4)c2)n1` [Compound 57] gave an IC50 of 1 to 10 µM.
With `CNc1cc(C)nc(Nc2cnc(OC)c(-c3nc4cnccn4n3)c2)n1` [Compound 60] the IC50 was > 10 µM.
In the case of `CNc1cc(C)nc(Nc2ccc(OC)c(-n3cnc(CN(C)C)n3)c2)n1` [Compound 61], the IC50 is reported as > 10 µM.
With `CNc1cc(C)nc(Nc2cnc(OC)c(-n3cnc(CN(C)C)n3)c2)n1` [Compound 62] the IC50 was > 10 µM.
With `CNc1cc(C)nc(Nc2cc(-n3cc4c(n3)CCN(C)C4)c(OC)cn2)n1` [Compound 65] the IC50 was > 10 µM.
Compound `CNc1cc(C)nc(Nc2ccc(OC)c(-n3cc(CN(C)C)nn3)c2)n1` [Compound 66] has an IC50 of 0.1 to 1 µM.
For `CNc1cc(C)nc(Nc2ccc(OC)c(-n3cnc(CN4CCC4)n3)c2)n1` [Compound 67], the IC50 was > 10 µM.
For `CNc1cc(C)nc(Nc2ccc(OC)c(-n3cnc(CN4CC(F)C4)n3)c2)n1` [Compound 68], the IC50 was > 10 µM.
In the case of `CNc1cc(C)nc(Nc2ccc(OC)c(-n3cc4c(n3)CCN(C3COC3)C4)c2)n1` [Compound 69], the IC50 is reported as > 10 µM.
`CCN1CCc2nn(-c3cc(Nc4nc(C)cc(NC)n4)ccc3OC)cc2C1` [Compound 70] showed an IC50 of 0.1 to 1 µM.
`CNc1cc(C)nc(Nc2ccc(OC)c(-c3nnc(CN(C)C)[nH]3)c2)n1` [Compound 73] was tested, and the IC50 was > 10 µM.
Compound `CNc1cc(C)nc(Nc2cnc(OC)c(-n3cc(CN(C)C)cn3)c2)n1` [Compound 74] has an IC50 of 0.1 to 1 µM.
In the case of `CNc1cc(C)nc(Nc2ccc(OC)c(-n3ncc4c3CN(C(C)=O)CC4)c2)n1` [Compound 75], the IC50 is reported as > 10 µM.
In the case of `CNc1cc(C)nc(Nc2ccc(OC)c(-n3nccc3CNC(C)=O)c2)n1` [Compound 76], the IC50 is reported as > 10 µM.
For `CNc1cc(C)nc(Nc2ccc(OC)c(-c3nnc4n3CCN(C(=O)OC(C)(C)C)C4)c2)n1` [Compound 77], the IC50 was > 10 µM.
With `CNc1cc(C)nc(Nc2ccc(OC)c(-c3nc4c([nH]3)CNCC4)c2)n1` [Compound 78] the IC50 was 1 to 10 µM.
With `CNc1cc(C)nc(Nc2ccc(OC)c(-c3nc4c([nH]3)CN(C)CC4)c2)n1` [Compound 79] the IC50 was 1 to 10 µM.
Work on `CNc1cc(C)nc(Nc2ccc(OC)c(-n3cc(C)c4c3CCN(C)C4)c2)n1` [Compound 81] yielded an IC50 of 1 to 10 µM.
For `CNc1cc(C)nc(Nc2ccc(OC)c(-n3cc4c(n3)CCN(C3CC3)C4)c2)n1` [Compound 82], the IC50 was 0.1 to 1 µM.
For `COc1ncc(Nc2nc(C)cc(NCC3COC3)n2)cc1-n1cc(CN(C)C)nn1` [Compound 86], the IC50 was > 10 µM.
Work on `CNC(=O)CCNc1cc(C)nc(Nc2ccc(OC)c(-n3cc4c(n3)CCN(C)C4)c2)n1` [Compound 87] yielded an IC50 of 0.1 to 1 µM.
For `CNC(=O)N1CC(CNc2cc(C)nc(Nc3ccc(OC)c(-n4cc5c(n4)CCN(C)C5)c3)n2)C1` [Compound 88], the IC50 was 0.1 to 1 µM.
`CNc1cc(C)nc(Nc2ccc(OC)c(-c3cc4cnccn4n3)c2)n1` [Compound 93] was tested, and the IC50 was > 10 µM.
In the case of `CNc1cc(C)nc(Nc2ccc(OC)c(-n3cc(C)c(CNC(C)=O)n3)c2)n1` [Compound 94], the IC50 is reported as > 10 µM.
`CNc1cc(C)nc(Nc2ccc(OC)c(-n3ccc(CNC(C)=O)n3)c2)n1` [Compound 95] was tested, and the IC50 was > 10 µM.
For `CNc1cc(C)nc(Nc2ccc(OC)c(-n3ccc(CN(C)C(C)=O)n3)c2)n1` [Compound 96], the IC50 was > 10 µM.
With `CNc1cc(C)nc(Nc2ccc(OC)c(-n3cc4c(C)nccc4n3)c2)n1` [Compound 99] the IC50 was 1 to 10 µM.
`CNc1cc(C)nc(Nc2ccc(OC)c(-n3cc4c(OC)nccc4n3)c2)n1` [Compound 100] was tested, and the IC50 was > 10 µM.
Compound `CNc1cc(C)nc(Nc2ccc(OC)c(-n3cc(C)c(CN(C)C)n3)c2)n1` [Compound 102] has an IC50 of 1 to 10 µM.
With `CNC(=O)c1cn(-c2cc(Nc3nc(C)cc(NC)n3)ccc2OC)nc1C` [Compound 103] the IC50 was > 10 µM.
With `CNC(=O)c1cnn(-c2cc(Nc3nc(C)cc(NC)n3)ccc2OC)c1` [Compound 104] the IC50 was > 10 µM.
In the case of `CNC(=O)c1c(C)nn(-c2cc(Nc3nc(C)cc(NC)n3)ccc2OC)c1C` [Compound 105], the IC50 is reported as > 10 µM.
`CNCc1c(C)nn(-c2cc(Nc3nc(C)cc(NC)n3)ccc2OC)c1C` [Compound 106] was tested, and the IC50 was > 10 µM.
In the case of `CNc1cc(C)nc(Nc2ccc(OC)c(-n3cc(CN(C)C)cn3)c2)n1` [Compound 109, N2-(3-(4-((dimethylamino)methyl)-1H-pyrazol-1-yl)-4-methoxyphenyl)-N4,6-dimethylpyrimidine-2,4-diamine], the IC50 is reported as < 0.1 µM.
For `CNc1cc(C)nc(Nc2ccc(OC)c(-n3ncc4c3CCNC4)c2)n1` [Compound 113, N2-(4-methoxy-3-(4,5,6,7-tetrahydro-1H-pyrazolo[4,3-c]pyridin-1-yl)phenyl)-N4,6-dimethylpyrimidine-2,4-diamine], the IC50 was < 0.1 µM.
In the case of `CNc1cc(C2CCOCC2)c2cc(OC)c(-n3cc(CN(C)C)nn3)cc2n1` [Compound 116], the IC50 is reported as 1 to 10 µM.
`CNC(=O)c1cn(-c2cc(Nc3nc(C)cc(NC)n3)ccc2OC)nn1` [Compound 117] was tested, and the IC50 was > 10 µM.
`CNc1cc(C)nc(Nc2ccc(OC)c(-n3ncc4ncccc43)c2)n1` [Compound 119] was tested, and the IC50 was > 10 µM.
For `CNc1cc(C)nc(Nc2ccc(OC)c(-n3cc(CN4CCC4)nn3)c2)n1` [Compound 121], the IC50 was 0.1 to 1 µM.
In the case of `CNCc1cn(-c2cc3nc(NC)cc(C)c3cc2OC)nn1` [Compound 122], the IC50 is reported as 1 to 10 µM.
Compound `CNc1cc(C)c2cc(OC)c(-n3cc(C4CCCN4)nn3)cc2n1` (stereo not shown) [Compound 125] has an IC50 of 0.1 to 1 µM.
With `CNC(=O)c1nn(-c2cc(Nc3nc(C)cc(NC)n3)ccc2OC)cc1C` [Compound 134] the IC50 was > 10 µM.
`CNc1cc(C)nc(Nc2ccc(OC)c(-n3cc(C4CCCN4C)nn3)c2)n1` (stereo not shown) [Compound 136] gave an IC50 of 0.1 to 1 µM.
In the case of `CNc1cc(C)nc(Nc2ccc(OC)c(-n3cc(C4CCCN4)nn3)c2)n1` (stereo not shown) [Compound 137, N2-(4-methoxy-3-(4-(pyrrolidin-2-yl)-1H-1,2,3-triazol-1-yl)phenyl)-N4,6-dimethylpyrimidine-2,4-diamine], the IC50 is reported as < 0.1 µM.
In the case of `CNc1cc(C)nc(Nc2ccc(OC)c(-n3nnc(C)c3CN(C)C)c2)n1` [Compound 138], the IC50 is reported as > 10 µM.
`CNc1cc(C)nc(Nc2ccc(OC)c(-n3nnc(CN(C)C)c3C)c2)n1` [Compound 139] was tested, and the IC50 was > 10 µM.
`CCN(CC)Cc1cn(-c2cc(Nc3nc(C)cc(NC)n3)ccc2OC)nn1` [Compound 143] was tested, and the IC50 was 0.1 to 1 µM.
Compound `CNc1cc(C)nc(Nc2ccc(OC)c(-n3cc4cc(C)ccc4n3)c2)n1` [Compound 144] has an IC50 of 1 to 10 µM.
With `CNc1cc(C)nc(Nc2ccc(OC)c(-n3cc4cc(C5CC5)ccc4n3)c2)n1` [Compound 145] the IC50 was > 10 µM.
